Results from patent US9695438B2, “Wheat plants having increased resistance to imidazolinone herbicides” (University of Saskatchewan, priority 2001, dated 2017).

Legend:
[1] = tested on: wheat plants (Triticum aestivum L. cv CDC Teal and mutant lines); experiment: Whole-plant reaction to imazamox spray (resistant / intermediate / susceptible rating); format: in vivo
Excerpt: Approximately 40,000 seeds of Triticum aestivum L. cv CDC Teal (Hughes and Hucl, 1993 Can. J. Plant Sci. 73:193-197) were mutagenized using modified procedures described by Washington and Sears (1970). Seeds were pre-soaked in distilled water for four hours, followed by treatment with 0.3% EMS for six hours. Seeds were rinsed continually with tap water for seven hours and allowed to dry for approximately four hours before being planted in the field. The M1 plants were selfed and the seed was harvested in bulk. Approximately 2×10^6 M2 plants were grown in the field the following year and were sprayed at the two leaf stage with imazamox at a rate of 40 g ai ha^−1 in a spray volume of 100 L ha^−1. Merge 0.05% (v/v) adjuvant was added to the spray solution. Six lines resistant to imazamox were selected and designated as lines 1A, 9A, 10A, 11A, 15A, and 16A. The M3 and M4 generations were grown in a walk-in growth chamber and plants resistant to imazamox were selected using rates of 20 g ai ha^−1. Resistant plants were selected in the M5 generation after application of 40 g ai ha^−1 in the field. M5 seed was homozygous for the trait, as progeny testing detected no segregation for resistance to imazamox.
To determine the genetic control of resistance to imazamox in the six wheat lines, reciprocal crosses between the six homozygous resistant M6 lines and CDC Teal (susceptible to imazamox) were made. Randomly selected F1 plants from each of the crosses were backcrossed to CDC Teal to form backcross (BC)F1 populations. To investigate allelism, all possible inter-crosses between the six mutants and SWP965001 (Grandin/3*Fidel—FS-4) were made. SWP965001 is a spring wheat line that is homozygous for the FS-4 allele. Parental genotypes were grown in a walk-in growth chamber with a 16 hour photoperiod and a 24° C. day and 16° C. night temperature regime. Spikes that were ¾ emerged from the boot were emasculated and then pollinated 2-3 days after the emasculation date. Randomly selected F2 plants from all segregating crosses were selfed to produce F2:3 families. Parental, F1, BCF1, F2 plants and F2:3 families were tested for reaction to imazamox. All experiments were conducted in a walk-in growth chamber with a 16 hour photoperiod and a 23° C. day and 16° C. night temperature regime. A completely random design was used for all experiments. In experiments involving F2:3 families, effort was taken to randomize both within and among families. The F1 and F2 populations were screened in the same experiment along with parental genotypes and CDC Teal as controls. Both the BCF1 and F2:3 populations were screened in two separate experiments along with appropriate parental genotypes as controls.
Herbicide treatments were applied to plants growing in 8×16 cell flats at the two leaf stage using a traveling cable sprayer calibrated to spray 100 L ha^−1. Imazamox was applied to plants at a rate of 20 g ai ha^−1 using an 8001 EVS nozzle at a pressure of 275 kPa. Merge surfactant (0.05% v/v) was added to the herbicide solution prior to application. Fifteen days after herbicide application, plants were rated based on parental reactions and were considered as resistant, intermediate, or susceptible. […] For Mendelian analysis of the segregating populations, plants were scored into resistant and susceptible categories and tested for goodness of fit to various 1 gene, 2 gene and 3 gene models using chi-square analysis. […]

[2] = tested on: wheat genotypes (BW755, Teal15A, 15A/11A); experiment: Injury of wheat genotypes treated with 10× or 30× rate of imazamox; format: in vivo, Triticum aestivum
Excerpt: FIG. 7 is a table comparing injury sustained by three wheat genotypes when treated with either a 10× or 30× rate of imazamox. The 1× rate is 20 g/ha. BW755 contains the FS4 mutant gene. 15A/11A is a bulk of selfed progeny from the cross of Teal11A and Teal15A. The population was not yet homozygous at all three non-allelic loci.
The presence of two IMI nucleic acids in Teal 15A provides increased tolerance to imidazolinone herbicides compared to a line such as BW755 carrying only one IMI nucleic acid. This increased tolerance is reflected both in less injury at higher herbicide rates, but in having more uninhibited AHAS enzyme activity.
Combining three non-allelic genes each conferring tolerance to imidazolinone herbicides results in greater tolerance than with only two non-allelic genes (FIG. 7).

Nicotiana tabacum plants = details: plants homozygous for both mutations versus plants homozygous for each single mutation; cited from earlier work

Row | Structure (SMILES) | reaction to imazamox ([1]; CDC Teal (wild type parent)) | survival after application of imazamox ([1]; F1 plants of reciprocal crosses between resistant lines and CDC Teal, 20 g ai ha^−1) | reaction to imazamox ([1]; F1 plants of resistant lines crossed with CDC Teal, except 15A×Teal, 20 g ai ha^−1) | reaction to imazamox ([1]; fourteen F1 plants from 15A×Teal cross, 20 g ai ha^−1) | reaction to imazamox ([1]; selected lines 1A, 9A, 10A, 11A, 15A, 16A, M2 plants in field, two leaf stage, 40 g ai ha^−1) | plant injury ([2]; 10× rate (200 g/ha), one gene plants (BW755, FS4)) | plant injury ([2]; 10× rate (200 g/ha), two gene plants (Teal 15A)) | plant injury ([2]; 30× rate (600 g/ha), homozygous population of Teal15A) | plant injury ([2]; 30× rate (600 g/ha), still-segregating selfed population of Teal15A crossed with Teal11A) | resistance to foliar applications relative to single mutation plants (Nicotiana tabacum plants)
1 | COCc1cnc(C2=NC(C)(C(C)C)C(=O)N2)c(C(=O)O)c1 (stereo not shown) [imazamox] | susceptible | survived | intermediate reaction | resistant | resistant | all treated one gene plants were injured | no two gene plants were injured | all plants of the homozygous population of Teal15A sustained injury | over half of plants sustained no injury | –
2 | COc1nc(C)nc(NC(=O)NS(=O)(=O)c2ccccc2Cl)n1 [chlorsulfuron] | – | – | – | – | – | – | – | – | – | five-fold more resistant
